Source: ChEMBL document CHEMBL3885881, “DrugMatrix”

Species on record: Rattus norvegicus
Test: DrugMatrix - Regimen: Daily Repeat
Type: toxicity, organism-based, Sprague-Dawley
Design: regimen Daily Repeat, gender Male, age 6-8 weeks
Details: in vivo, po, route oral GAVAGE, vehicle .5 % CMC; for BASOPHIL / EOSINOPHIL / ERYTHROCYTE COUNT / HEMATOCRIT / HEMOGLOBIN / LEUKOCYTE COUNT / LYMPHOCYTE / MEAN CORPUSCULAR HEMOGLOBIN / MEAN CORPUSCULAR HEMOGLOBIN CONCENTRATION / MEAN CORPUSCULAR VOLUME / MONOCYTE / NEUTROPHIL / PLATELET COUNT: tissue Blood; for ALANINE AMINOTRANSFERASE / ALBUMIN / ALKALINE PHOSPHATASE / ASPARTATE AMINOTRANSFERASE / BLOOD UREA NITROGEN / CHOLESTEROL / CREATINE PHOSPHOKINASE / CREATININE / GLUCOSE / PHOSPHORUS / POTASSIUM / SODIUM / TOTAL BILIRUBIN / TOTAL PROTEIN: tissue Plasma
[1] = 0 mg/kg, 72 h, dose level Control, time 3 day
[2] = 0 mg/kg, 120 h, dose level Control, time 5 day
[3] = 45 mg/kg, 72 h, dose level High, time 3 day
[4] = 45 mg/kg, 120 h, dose level High, time 5 day
[5] = […], 72 h, dose 1.1 mg/Kg, dose level Low, time 3 day
[6] = […], 120 h, dose 1.1 mg/Kg, dose level Low, time 5 day

With COc1cc(NC(C)CCCN)c2ncccc2c1 (configuration not stated) [PRIMAQUINE] the BASOPHIL [1] was 0%, the EOSINOPHIL [1] was 0% and the “ERYTHROCYTE COUNT” value [1] was 6.19 x10E6/uL. The HEMATOCRIT [1] was 36.94%, the HEMOGLOBIN [1] was 14.58 G/DL and the “LEUKOCYTE COUNT” value [1] was 11.54 x10E3/uL. For the same molecule, the LYMPHOCYTE [1] was 84.8%, the “MEAN CORPUSCULAR HEMOGLOBIN” value [1] was 23.58 pg and the “MEAN CORPUSCULAR HEMOGLOBIN CONCENTRATION” value [1] was 39.44 G/DL. For the same molecule, the “MEAN CORPUSCULAR VOLUME” value [1] was 59.76 fL, the MONOCYTE [1] was 1.4% and the NEUTROPHIL [1] was 13.8%. The “PLATELET COUNT” value [1] was 1068.8 x10E3/uL, the “ALANINE AMINOTRANSFERASE” value [1] was 38.17 u/L and the ALBUMIN [1] was 3.88 G/DL. For the same molecule, the “ALKALINE PHOSPHATASE” value [1] was 391.33 u/L, the “ASPARTATE AMINOTRANSFERASE” value [1] was 69.83 u/L and the “BLOOD UREA NITROGEN” value [1] was 15 mg/dL. The CHOLESTEROL [1] was 72.17 mg/dL, the “CREATINE PHOSPHOKINASE” value [1] was 174.33 u/L and the CREATININE [1] was 0.58 mg/dL. For the same molecule, the GLUCOSE [1] was 192.67 mg/dL, the PHOSPHORUS [1] was 10.52 mg/dL and the POTASSIUM [1] was 6.8 MEQ/L. The SODIUM [1] was 149.67 MEQ/L, the “TOTAL BILIRUBIN” value [1] was 0.78 mg/dL and the “TOTAL PROTEIN” value [1] was 6.28 G/DL. For the same molecule, the BASOPHIL [2] was 0%, the EOSINOPHIL [2] was 0.17% and the “ERYTHROCYTE COUNT” value [2] was 6.72 x10E6/uL. For the same molecule, the HEMATOCRIT [2] was 40.02%, the HEMOGLOBIN [2] was 15.83 G/DL and the “LEUKOCYTE COUNT” value [2] was 9.5 x10E3/uL. The LYMPHOCYTE [2] was 87.17%, the “MEAN CORPUSCULAR HEMOGLOBIN” value [2] was 23.57 pg and the “MEAN CORPUSCULAR HEMOGLOBIN CONCENTRATION” value [2] was 39.62 G/DL. For the same molecule, the “MEAN CORPUSCULAR VOLUME” value [2] was 59.55 fL, the MONOCYTE [2] was 1.67% and the NEUTROPHIL [2] was 11%. For the same molecule, the “PLATELET COUNT” value [2] was 1053.67 x10E3/uL, the “ALANINE AMINOTRANSFERASE” value [2] was 26.33 u/L and the ALBUMIN [2] was 4.02 G/DL. The “ALKALINE PHOSPHATASE” value [2] was 316.67 u/L, the “ASPARTATE AMINOTRANSFERASE” value [2] was 61.33 u/L and the “BLOOD UREA NITROGEN” value [2] was 18.67 mg/dL. The CHOLESTEROL [2] was 65.17 mg/dL, the “CREATINE PHOSPHOKINASE” value [2] was 161.17 u/L and the CREATININE [2] was 0.75 mg/dL. The GLUCOSE [2] was 177.33 mg/dL, the PHOSPHORUS [2] was 9.72 mg/dL and the POTASSIUM [2] was 6.18 MEQ/L. For the same molecule, the SODIUM [2] was 150.5 MEQ/L, the “TOTAL BILIRUBIN” value [2] was 0.68 mg/dL and the “TOTAL PROTEIN” value [2] was 6.55 G/DL. For the same molecule, the BASOPHIL [3] was 0%, the EOSINOPHIL [3] was 0.33% and the “ERYTHROCYTE COUNT” value [3] was 6.7 x10E6/uL. The HEMATOCRIT [3] was 40.07%, the HEMOGLOBIN [3] was 15.73 G/DL and the “LEUKOCYTE COUNT” value [3] was 10.6 x10E3/uL. The LYMPHOCYTE [3] was 76.67%, the “MEAN CORPUSCULAR HEMOGLOBIN” value [3] was 23.53 pg and the “MEAN CORPUSCULAR HEMOGLOBIN CONCENTRATION” value [3] was 39.3 G/DL. For the same molecule, the “MEAN CORPUSCULAR VOLUME” value [3] was 59.87 fL, the MONOCYTE [3] was 2.67% and the NEUTROPHIL [3] was 20.33%. The “PLATELET COUNT” value [3] was 1053 x10E3/uL, the “ALANINE AMINOTRANSFERASE” value [3] was 83.33 u/L and the ALBUMIN [3] was 3.73 G/DL. For the same molecule, the “ALKALINE PHOSPHATASE” value [3] was 304.67 u/L, the “ASPARTATE AMINOTRANSFERASE” value [3] was 358.33 u/L and the “BLOOD UREA NITROGEN” value [3] was 10 mg/dL. The CHOLESTEROL [3] was 77.67 mg/dL, the “CREATINE PHOSPHOKINASE” value [3] was 213.33 u/L and the CREATININE [3] was 0.67 mg/dL. For the same molecule, the GLUCOSE [3] was 176 mg/dL, the PHOSPHORUS [3] was 11.23 mg/dL and the POTASSIUM [3] was 6.27 MEQ/L. For the same molecule, the SODIUM [3] was 148.33 MEQ/L, the “TOTAL BILIRUBIN” value [3] was 0.4 mg/dL and the “TOTAL PROTEIN” value [3] was 6.03 G/DL. For the same molecule, the BASOPHIL [4] was 0%, the EOSINOPHIL [4] was 0% and the “ERYTHROCYTE COUNT” value [4] was 5.75 x10E6/uL. For the same molecule, the HEMATOCRIT [4] was 35.53%, the HEMOGLOBIN [4] was 14.07 G/DL and the “LEUKOCYTE COUNT” value [4] was 13.03 x10E3/uL. For the same molecule, the LYMPHOCYTE [4] was 79.67%, the “MEAN CORPUSCULAR HEMOGLOBIN” value [4] was 24.47 pg and the “MEAN CORPUSCULAR HEMOGLOBIN CONCENTRATION” value [4] was 39.6 G/DL. For the same molecule, the “MEAN CORPUSCULAR VOLUME” value [4] was 61.83 fL, the MONOCYTE [4] was 3.67% and the NEUTROPHIL [4] was 16.67%. For the same molecule, the “PLATELET COUNT” value [4] was 778.33 x10E3/uL, the “ALANINE AMINOTRANSFERASE” value [4] was 35.67 u/L and the ALBUMIN [4] was 3.63 G/DL. The “ALKALINE PHOSPHATASE” value [4] was 336.33 u/L, the “ASPARTATE AMINOTRANSFERASE” value [4] was 78.67 u/L and the “BLOOD UREA NITROGEN” value [4] was 12 mg/dL. For the same molecule, the CHOLESTEROL [4] was 67.33 mg/dL, the “CREATINE PHOSPHOKINASE” value [4] was 151.67 u/L and the CREATININE [4] was 0.57 mg/dL. For the same molecule, the GLUCOSE [4] was 177 mg/dL, the PHOSPHORUS [4] was 10.23 mg/dL and the POTASSIUM [4] was 6.03 MEQ/L. The SODIUM [4] was 149 MEQ/L, the “TOTAL BILIRUBIN” value [4] was 0.47 mg/dL and the “TOTAL PROTEIN” value [4] was 5.83 G/DL. The BASOPHIL [5] was 0%, the EOSINOPHIL [5] was 1% and the “ERYTHROCYTE COUNT” value [5] was 5.53 x10E6/uL. For the same molecule, the HEMATOCRIT [5] was 33.77%, the HEMOGLOBIN [5] was 13.73 G/DL and the “LEUKOCYTE COUNT” value [5] was 11.03 x10E3/uL. The LYMPHOCYTE [5] was 85%, the “MEAN CORPUSCULAR HEMOGLOBIN” value [5] was 24.87 pg and the “MEAN CORPUSCULAR HEMOGLOBIN CONCENTRATION” value [5] was 40.77 G/DL. For the same molecule, the “MEAN CORPUSCULAR VOLUME” value [5] was 61 fL, the MONOCYTE [5] was 2% and the NEUTROPHIL [5] was 12%. The “PLATELET COUNT” value [5] was 1053.67 x10E3/uL, the “ALANINE AMINOTRANSFERASE” value [5] was 32.33 u/L and the ALBUMIN [5] was 3.57 G/DL. For the same molecule, the “ALKALINE PHOSPHATASE” value [5] was 308 u/L, the “ASPARTATE AMINOTRANSFERASE” value [5] was 56.33 u/L and the “BLOOD UREA NITROGEN” value [5] was 11.67 mg/dL. For the same molecule, the CHOLESTEROL [5] was 75.33 mg/dL, the “CREATINE PHOSPHOKINASE” value [5] was 161.67 u/L and the CREATININE [5] was 0.6 mg/dL. For the same molecule, the GLUCOSE [5] was 178 mg/dL, the PHOSPHORUS [5] was 11.23 mg/dL and the POTASSIUM [5] was 6.57 MEQ/L. The SODIUM [5] was 148 MEQ/L, the “TOTAL BILIRUBIN” value [5] was 0.4 mg/dL and the “TOTAL PROTEIN” value [5] was 5.63 G/DL. The BASOPHIL [6] was 0%, the EOSINOPHIL [6] was 0.33% and the “ERYTHROCYTE COUNT” value [6] was 6.36 x10E6/uL. For the same molecule, the HEMATOCRIT [6] was 37.73%, the HEMOGLOBIN [6] was 15.4 G/DL and the “LEUKOCYTE COUNT” value [6] was 11.63 x10E3/uL. The LYMPHOCYTE [6] was 91.33%, the “MEAN CORPUSCULAR HEMOGLOBIN” value [6] was 24.37 pg and the “MEAN CORPUSCULAR HEMOGLOBIN CONCENTRATION” value [6] was 41 G/DL. For the same molecule, the “MEAN CORPUSCULAR VOLUME” value [6] was 59.37 fL, the MONOCYTE [6] was 1.33% and the NEUTROPHIL [6] was 7%. For the same molecule, the “PLATELET COUNT” value [6] was 1065 x10E3/uL, the “ALANINE AMINOTRANSFERASE” value [6] was 27 u/L and the ALBUMIN [6] was 3.9 G/DL. For the same molecule, the “ALKALINE PHOSPHATASE” value [6] was 323 u/L, the “ASPARTATE AMINOTRANSFERASE” value [6] was 65.67 u/L and the “BLOOD UREA NITROGEN” value [6] was 15.33 mg/dL. The CHOLESTEROL [6] was 71 mg/dL, the “CREATINE PHOSPHOKINASE” value [6] was 141.33 u/L and the CREATININE [6] was 0.6 mg/dL. The GLUCOSE [6] was 169.33 mg/dL, the PHOSPHORUS [6] was 10.37 mg/dL and the POTASSIUM [6] was 6.4 MEQ/L. For the same molecule, the SODIUM [6] was 151.67 MEQ/L, the “TOTAL BILIRUBIN” value [6] was 0.43 mg/dL and the “TOTAL PROTEIN” value [6] was 6.23 G/DL.
